{"source": "patent US9969970B2", "about": "“DNA-cell conjugates” (The Regents of the University of California, priority 2009, dated 2018)", "key": {"Jurkat cells [1]": {"test_system": "Jurkat cells", "assay": "Quantification of DNA attached to the cell surface", "assay_type": "cell-based", "conditions": "Ac4ManNAz-fed cells, Staudinger ligation"}, "[2]": {"conditions": "20 bp DNA duplex; ConA-mannose; antibody-antigen; cited from earlier work"}, "Jurkat cells [3]": {"test_system": "Jurkat cells", "assay": "Cell capture, morphology and annexin V/PI viability of cells immobilized on biomolecule-coated slides", "assay_type": "cell-based", "description": "(§1) FIG. 17. Comparison of biomolecule-based adhesion methods. a) Bulk cell growth rates were first determined in the presence of the adhesion molecules. A suspension of Jurkat cells was combined with ConA or anti-CD3 IgG, and a solution of DNA-coated cells was combined with the complementary DNA strands. At various time points the total number of cells was counted. The control sample was grown in the absence of any adhesion molecules. b) To evaluate cell capture efficiency, solutions of 20 μM FITC-labeled ssDNA, 20 μM FITC-labeled ConA, and 6 μM FITC-labeled anti-CD3 IgG were applied to aldehyde-coated glass slides, and the biomolecules were attached by reductive amination. Solutions containing 1×10^7 Jurkat cell mL^−1 were then introduced onto the resulting slides. […] The cells were evaluated within 1 h by fluorescence microscopy. * ConA and antibody immobilized cells that were partially stained by annexin were counted as cells undergoing apoptosis. […]\nThe extent of apoptosis of surface bound cells was determined by annexin V/propidium iodide staining (BD Biosciences). […] The cells were imaged by fluorescence microscopy and the number of non-viable cells counted after one hour. […]"}, "Jurkat cells [4]": {"test_system": "Jurkat cells", "assay": "Bulk cell growth and morphology in the presence of adhesion molecules", "assay_type": "cell-based", "conditions": "adhesion molecule in suspension; DNA-coated cells with complementary sequence", "description": "as §1, with “slides. The samples were incubated for 10 min at room temperature and then washed with two portions of phosphate-buffered saline (PBS) before evaluation. c) To evaluate cell viability, cells were immobilized on DNA, ConA, and anti-CD3 IgG coated aldehyde slides.” for “slides.”\nThe effects of the adhesion molecules on the viability of the cells were assessed using two different methods. […]"}, "Jurkat cells [5]": {"test_system": "Jurkat cells", "assay": "AFM measurement of de-adhesion force, cell-cantilever", "conditions": "cantilever attachment method", "description": "FIG. 18. AFM measurement of de-adhesion force. A) Six sample traces for a single cell are shown in shades of gray, with the average trace shown in black. At zero distance, the cell is in full contact with the cantilever, which is applying a positive force. As distance increases, the cantilever is pulled away from the glass slide surface, causgin the cell-cantilever linkage to rupture and result in the zero-force, no-contact region. The force of d-adhesion was calculated as the difference between the curve minimum and the horizontal no=contact region. B) Adhesion forces were measured under different retraction rates (15.7 and 8.2 μm/s) and contact forces (400 and 200 pN) for the DNA, ConA, and antibody systems. Data were obtained by measuring size de-adhesion events on more than four different cells. Error bards represent one standard deviation.\nOur assay to determine the strength of cantilever attachment was designed such that cell-cantilever adhesions were fewer in number, and therefore weaker overall, than DNA-based adhesions between a cell and the complementarily functionalized glass slide. […] The force of de-adhesion was measured for each attachment method using two different retraction rates and two different contact forces (FIG. 18a). The measured force of de-adhesion increased with contact force and retraction rate across all attachment methods, as predicted by the Bell model. […]"}, "Jurkat cells [6]": {"test_system": "Jurkat cells", "assay": "Bulk cell acidification control with rotenone", "assay_type": "cell-based", "conditions": "1 μM rotenone, low-buffered media, ~10^6 cells/mL, 37° C.", "description": "(§2) Incubation with rotenone would be expected to interfere with the mitochondrial electron transport chain, causing cells to shift to lactic acid fermentation to complete the glycolytic cycle. The resulting excretion of lactic acid should then increase the rate of acidification in the cellular environment. In the experiment, captured cells were first incubated under normal conditions to establish a baseline rate of acidification (˜8.8 milli-pH/min) under aerobic metabolism."}, "Jurkat cells [7]": {"test_system": "Jurkat cells", "assay": "Single cell acidification on the bifunctional microelectrode array, rotenone stimulation", "assay_type": "cell-based", "description": "Metabolic monitoring was accomplished as follows: Cells were suspended at a concentration of 10^6/ml, and the suspension was flowed into the microfluidic device. Cell suspensions were flowed into the channel using 1 mL syringes with Teflon tubing. Where Jurkat and primary T cells were monitored simultaneously they were labeled with CellTracker Green and Red dyes, respectively, as previously described and mixed in an equal ratio. Following a 5 min incubation to allow DNA-based cell capture, the unbound cells were rinsed away (5 ul/min for 3 min) with the low-buffered media. After rinsing, the pH response was monitored electrochemically for 10 min. After this recording, cells were released from the electrodes by heating the device to 55° C. and applying a strong rinse (200 uL/min) with the low-buffered media. Once rinsed and allowed to return to 37° C., the device could be reloaded with cells. This allowed for multiple measurements to be taken with a single cell preparation.\nVoltage measurements were recorded between the iridium oxide electrode and a distant FLEXREF Ag/AgCl reference electrode from World Precision Instruments. An identical iridium oxide electrode outside the cell area was used to compensate for any sensor drift. The sensor electrodes were connected to a National Instruments PCI-6031E data acquisition card with 16 bit analog to digital conversion. The digitized signals were monitored using a custom Labview VI, sampling in multiplex at 3 hz. Voltage signals were processed with a 1% Loess filter using Peak Fit software to reduce noise.\nas §2"}}, "note": "{Phos} = phosphine group for Staudinger ligation to cell-surface azides", "data": [{"molecule": "Phosphine-modified ssDNA: phosphine-modified ssDNA (5′-phos-GTAACGATCCAGCTGTCACT-3′) ligated to cell-surface azides by Staudinger ligation (DNA GTAACGATCCAGCTGTCACT; DNA, 5' {Phos}, backbone not given here)", "values": [{"measurement": "ssDNA molecules per cell", "setting": "Jurkat cells [1]", "value": "≈ 270,000"}]}, {"molecule": "concanavalin A [ConA]", "values": [{"measurement": "force of one individual linkage", "setting": "[2]", "value": 47, "unit": "pN"}, {"measurement": "apoptotic and necrotic cells, annexin V and PI staining", "setting": "Jurkat cells [3]; 24 and 48 h after immobilization", "value": "significantly higher numbers of apoptotic cells"}, {"measurement": "morphology of immobilized cells", "setting": "Jurkat cells [3]; after 48 h on coated slides", "value": "significant changes"}, {"measurement": "cell growth over a three-day period", "setting": "Jurkat cells [4]", "value": "aggregated and were no longer alive after 12 h"}, {"measurement": "zero-force attachment events in de-adhesion measurements", "setting": "Jurkat cells [5]", "value": 12, "unit": "%"}]}, {"molecule": "C=C(C)[C@H]1Cc2c(ccc3c2O[C@@H]2COc4cc(OC)c(OC)cc4[C@@H]2C3=O)O1", "note": "[rotenone]", "values": [{"measurement": "acidification over 60 min compared to identical untreated cells", "setting": "Jurkat cells [6]", "value": "more than twice"}, {"measurement": "increase in the acidification rate", "setting": "Jurkat cells [7]; 10 μM rotenone versus baseline", "value": "three-fold"}, {"measurement": "time to increase in acidification rate", "setting": "Jurkat cells [7]; after addition of 10 μM rotenone", "value": "≤ 1", "unit": "min"}, {"measurement": "acidification rate", "setting": "Jurkat cells [7]; single Jurkat cells after 10 μM rotenone added to channel, baseline ~8.8 milli-pH/min", "value": "~27.7", "unit": "milli-pH/min"}]}]}
